Measured values published in patent US5843941A, “Ras farnesyl transferase inhibitors” (Genentech, Inc., priority 1994, dated 1998).

Columns and labels:
[1] = system: farnesylated proteins F1, F2 and F3 in Met18b-2 cells; assay: Inhibition of intracellular farnesylation in intact Met18b-2 cells, Triton-soluble proteins F1, F2, F3; type: cell-based, Chinese hamster
[2] = system: low molecular weight GTP binding proteins (SMG) in Met18b-2 cells; assay: [3H]mevalonate labeling of low molecular weight GTP binding proteins (SMG) in Met18b-2 cells; type: cell-based, Chinese hamster
Source text: To study farnesylation in intact cells we used Met18b-2 cells, a line of Chinese hamster ovary (CHO) cells that takes up [3H]mevalonate efficiently (see Faust, J., and Krieger, M. J. Biol. Chem. 262, 1966 (1987)) owing to the production of a mevalonate transport protein (see Kim, C. M., Goldstein, J. L., Brown, M. S. J. Biol. Chem. 267, 23113 (1992)). The [3H]mevalonate is converted by the cells into [3H]farnesyl pyrophosphate and [3H]geranylgeranyl pyrophosphate, which are then attached to proteins (Kim, C. M., Goldstein, J. L., Brown, M. S. J. Biol. Chem. 267, 23113 (1992)). In the assay, stock cultures of Met18b-2 cells were seeded at a density of 3-105 cells per 60 mm dish in 3 ml of medium A (Dulbecco's modified Eagle medium/Ham's F12 medium (1:1, v/v) containing 100 U/ml penicillin and 100 μg/ml streptomycin) supplemented with 5% (v/v) fetal calf serum (FCS). On day 3, each monolayer was refed with 1 ml medium A supplemented with 1% FCS (dialyzed against 0.15 M NaCl). At this point the cells were treated with 100 μM compactin (see Brown, M. S., Faust, J. R., Goldstein, J. L., Kaneko, I., and Endo, A. J. Biol. Chem. 253, 1121 (1978)) which blocks the synthesis of unlabeled mevalonate within the cells. Each compound was dissolved at 25 mM in DMSO/10 mM DTT immediately before use and 10 μl of this solution added directly. After 2 hr incubation at 37° C., each monolayer received 100 μCi [3H]mevalonate (60 Ci/mmol, American Radiolabeled Chemicals, Inc.) added in 100 μl of the medium A, and the incubation continued for 4 hr. The cells were harvested by rinsing three times with 3 ml of 50 mM Tris-HCl/0.15 M NaCl (pH 7.5). 300 μl of lysis buffer (0.5X Dulbecco's phosphate-buffered saline containing 1% Triton X-100, 5 μg/ml leupeptin, 5 μg/ml pepstatin, 0.5 mM phenylmethylsulfonyl fluoride, and 0.05 U/ml aprotinin) was added to each monolayer. After incubation on ice for 5 mon, the lysates were centrifuged 30 sec in a microfuge at 12,000 g. […] Protein concentrations were determined using the BCA protein assay reagent (Pierce) according to the manufacturer's instructions. […]

[3] = system: src-transformed rat-1 fibroblasts; assay: Changes in morphology of src-transformed cells; type: cell-based; conditions: FIG. 6C/6D
Procedure: Compound 27A (denoted as BG269A in the figure) and compound 27B (denoted as BG269B in the figure) were added at 250 μM to test whether these compounds would induce reversion to a more normal phenotype as had been previously shown with microinjection of anti-Ras antibodies (see Feramisco, J. R. et al Nature 314, 639 (1985)). The H-ras transformed cells, denoted as rat 2.2 cells, were generated by transfection of rat-1 fibroblasts as described (see Seeburg, P. H., Colby, W. W., Capon, D. J., Goeddel, D. V., and Levinson, A. D. Nature 312,71 (1984)). Cells that overgrew the monolayer were extracted and plated onto agar to obtain a cell line displaying a fully transformed phenotype. Untransformed rat-1 fibroblasts and src-transformed rat-1 fibroblasts were also treated. The src-transformed cells were generated by co-transfection of rat-1 fibroblasts with pSV3.Neo.src, a vector containing the gene for src as well as the gene that confers G418 resistance, both under control of SV40 early promoters. G418-resistant cell clones that diplayed a transformed phenotype were used to generate the cell line. On day 0, cells were plated in monolayer culture at 3×10^3 cells per well (24-well plates) in 1 ml DMEM supplemented with 10% FCS, 100 U/ml penicillin, 10 μg/ml streptomycin, 2% DMSO, and 0.5 mM DTT with and without 200 μM inhibitor. On day 3, the cells were refed with the same medium. […]

[4] = system: Ras proteins in Met18b-2 cells; assay: Incorporation of [3H]mevalonate into immunoprecipitated Ras proteins in Met18b-2 cells; type: cell-based, Chinese hamster
Procedure: In each experiment, aliquots of the Triton X-100 fraction (300 μg protein, prepared as described above) were incubated with 1 μg anti-Ras monoclonal antibody (Oncogene Sciences, Inc.) overnight at 4° C. on a rotating platform. Immune complexes were precipitated by addition of 25 μl Protein A-agarose suspension that had been pre-coated with goat anti-rat IgG (Oncogene Sciences, Inc.) according to the manufacturer's instructions. After a 30 min incubation at 4° C., the agarose beads were pelleted by centrifugation and washed 5 times with 1 ml each of wash solution (50 mM Tris-HCl, 50 mM NaCl, 0.5% (w/v) deoxycholate, 0.5% (v/v) Nonidet P-40, and 0.1% (w/v) SDS at pH 7.5). 75 μl of 1X SDS sample buffer was added and each sample heated for 5 min at 95° C. before electrophoresis as above.

Row | Structure (SMILES) | labeling of Triton-soluble farnesylated proteins (F1 to F3) ([1]; 250 μM, FIG. 3) | effect on low molecular weight GTP binding proteins (SMG) ([2]; 250 μM, FIG. 3) | effect on morphology of src-transformed cells [3] | IC (almost complete) ([1]; Cricetulus griseus, read-out: concentration of almost complete inhibition of farnesylation of F1-3) | minimal effective concentration ([1]; Cricetulus griseus, read-out: concentration of detectable inhibition of farnesylation of F1-3) | relative potency in intact cells ([1]; dose dependence, FIG. 4, compared with 27B and 37B) | incorporation of radioactivity into SMG proteins ([2]; increasing concentration, FIG. 5, lanes 2-4) | incorporation of [3H]mevalonate into immunoprecipitated ras proteins ([4]; 50 μM, FIG. 5, lanes 7-9) | minimal effective concentration ([4]; Cricetulus griseus, FIG. 5, read-out: concentration at which inhibition of incorporation into ras proteins was readily detectable)
1 | CSCC[C@H](NC(=O)CN1C(=O)C(N(C)C(=O)[C@@H](N)CS)N=C(c2ccccc2)c2ccccc21)C(=O)O (single isomer, unassigned) [27B] | markedly decreased the labeling of all three Triton-soluble farnesylated proteins (F1 to F3) | little effect on the low molecular weight GTP binding proteins | not affected | – | – | – | – | – | –
2 | COC(=O)[C@H](CCSC)NC(=O)CN1C(=O)C(N(C)C(=O)[C@@H](N)CS)N=C(c2ccccc2)c2ccccc21 (single isomer, unassigned) [37B] | – | – | – | 25 µM | 10 µM | much more potent than the parent, compound 27B | did not detectably inhibit the incorporation of radioactivity into the abundant SMG proteins | abolished incorporation of [3H] mevalonate into immunoprecipitated ras proteins | 10 µM
